Values joined by “and” are separate entries in the source; they are usually repeats but may differ in a detail not shown here. Identical values can stand only once. Like-named read-outs stand apart in the source and are kept apart here. Each block holds one molecule with its values, some of them ahead of it.
What was measured:
[1] = Plasma pharmacokinetics of CGA and metabolites after 400 mg green coffee extract, ten volunteers; format: in vivo, human; details: for contribution to total phenolics in plasma: after green coffee extract consumption; for Cmax / AUC / Tmax: plasma, 400 mg green coffee extract oral, mean ± SD, n = 10; for molar ratio 3,5-diCQA:4,5-diCQA:3,4-diCQA in plasma / molar ratio 5-CQA:4-CQA:3-CQA in plasma: ratios of AUC in plasma; for contribution to AUC of total phenolic compounds in plasma: mean values of plasma AUC
Description: In a further phase of the study, ten non-smoker volunteers (22-55 y), five male and five female, were recruited. […] They were asked to eat only animal foods, refined cereal foods and artificial beverages. […] Blood samples were collected into heparin-containing tubes. Baseline blood aliquots were used to determine hematocrit and hemoglobin levels by standard methods. Plasma samples were obtained by centrifugation of the blood samples immediately after being drawn. Urine samples were also collected at baseline interval (minus 2-0 h) and at intervals of 0-2 h; 2-4 h; 4-6 h and 6-8 h after coffee consumption into appropriate plastic containers. Total urine volume was measured for each collection period. Plasma and urine aliquots for determination of CGA were acidified with HCl and kept frozen in liquid nitrogen until analyses. Urine aliquots for determination of creatinine were acidified with HCl and kept at −20° C. until analyses.
(§1) Results of CGA and phenolic acids in urine were normalized by creatinine excretion.

[2] = target: T1, hepatic Glc-6-Pase system (Homo sapiens, UniProt O43826); assay: Glc-6-Pase hydrolysis in intact human liver microsomes (phosphate release); format: biochemical; details: for Percentage inhibition of G6Pase: each compound at its naturally occurring concentration in 0.6 mM extract, 2 mM substrate; for Contribution to Glc-6-Pase system inhibition by the green coffee extract: inhibition of compound divided by inhibition of 0.6 mM total CGAs from the extract
T1 construct: Glc-6-Pase hydrolysis in intact human liver microsomes; tissue BD Biosciences; host or cells: pooled human liver microsomes, intact
T1 sequence (O43826 1-429): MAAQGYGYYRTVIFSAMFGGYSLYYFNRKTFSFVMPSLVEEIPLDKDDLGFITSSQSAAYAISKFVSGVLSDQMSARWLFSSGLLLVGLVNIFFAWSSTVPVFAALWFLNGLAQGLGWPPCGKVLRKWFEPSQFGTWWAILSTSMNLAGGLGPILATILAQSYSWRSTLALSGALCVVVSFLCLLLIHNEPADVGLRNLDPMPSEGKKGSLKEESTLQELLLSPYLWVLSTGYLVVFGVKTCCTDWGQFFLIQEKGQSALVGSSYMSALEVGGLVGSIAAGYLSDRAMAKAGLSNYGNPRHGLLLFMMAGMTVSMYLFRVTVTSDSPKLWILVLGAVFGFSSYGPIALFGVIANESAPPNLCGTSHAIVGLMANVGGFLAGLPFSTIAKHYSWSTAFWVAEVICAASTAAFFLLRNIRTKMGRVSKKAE
Description: A secondary purpose of Example 8 was to determine the inhibitory effects of a series of structurally-related compounds in the extract, such as caffeoylquinic acids and caffeoylferuloylquinic acids. Example 8 tested whether the extract could inhibit the hepatic Glc-6-Pase system by measuring enzymatic activity in human liver microsomes. These experiments were conducted with or without the extract at final CGA concentrations of 0.2, 0.4 and 0.6 mM. The effect of the extract on Glc-6-Pase activity was tested as a function of […] substrate concentration (2-10 mM).
Measurement of Glc-6-Pase Activity in Microsomes: Microsomal Glc-6-Pase activity was measured on the basis of the rate of release of phosphate under the assay conditions that were described by Wallert et al., Kinetic analysis of glucose-6-phosphatase: an investigative approach to carbohydrate metabolism and kinetics. Biochem. Mol. Biol. Educ. 2001, 29, 199-203. The enzyme assays were performed at 37° C. in a final volume of […] containing 100 mM cacodylic acid, pH 6.5 and concentrations of the substrate […] ranging from 2 to 10 mM.
The reaction was started by adding intact microsomes and was stopped with the addition of 3.2 mL of colorimetric reagent [9 volumes of molybdate (0.42% ammonium molybdate in 1 N H2SO4), 2 volumes of 5% SDS and 1 volume of 10% ascorbic acid, freshly prepared and stored on ice for a maximum of 6 h]. All samples were incubated for 30 minutes at 45° C., and the absorbance of the phosphate-molybdate complex was measured at 820 nm.
Microsomal intactness was quantified by measuring Man-6-Pase activity. Anion, W J. Measurement of intactness of rat liver endoplasmic reticulum. Methods Enzymol. 1989, 174, 58-67. In a preliminary study, Glc-6-Pase activity in intact human liver microsomes was determined on the basis of microsomal protein concentration and incubation time to obtain optimal experimental conditions, that is, 100 μg of microsomal proteins and 5 minutes of incubation (data not shown). Quantification was performed at optimal wavelengths (330 nm) for the CGAs during chromatographic separation. Samples were filtered (0.45 μm), and 2 μL was injected directly. The standard deviation for three analyses of the same sample was <5% for all compounds.
Preparation of Test Compounds: Stock solutions of test compounds were prepared in ultrapure water (pH 6.5) and diluted with assay reagent to the final concentrations.
Enzymatic activity was expressed as micromoles of phosphate released per minute per milligram of protein. Results were expressed as means±standard deviation (SD) of three independent experiments. Percentage of inhibition of Glc-6 Pase system activity was calculated by dividing the initial rate of reaction in microsomes that were treated with individual compounds by the initial rate of reaction in untreated microsomes. […] Statistical analysis was performed using an ANOVA test followed by a post hoc Tukey test under a normality assumption (Shapiro Wilk) or Kruskall Wallis nonparametric test followed by Bonferroni adjusted Mann-Whitney test otherwise; p<0.05 was considered to be significant. […]

[3] = Urinary excretion of CGA and metabolites after 400 mg green coffee extract, ten volunteers; format: in vivo, human
Description: In a further phase of the study, ten non-smoker volunteers (22-55 y), five male and five female, were recruited. Subjects were instructed to avoid consumption of phenolic-containing foods during the 48 h prior to the study. They were asked to eat only animal foods, refined cereal foods and artificial beverages. On the day of the study, after 10-12 h overnight fasting, an I.V. catheter was inserted into the antecubital vein and a baseline heparinized blood sample was obtained. […] Blood samples were collected into heparin-containing tubes. Baseline blood aliquots were used to determine hematocrit and hemoglobin levels by standard methods. Plasma samples were obtained by centrifugation of the blood samples immediately after being drawn. Urine samples were also collected at baseline interval (minus 2-0 h) and at intervals of 0-2 h; 2-4 h; 4-6 h and 6-8 h after coffee consumption into appropriate plastic containers. Total urine volume was measured for each collection period. Plasma and urine aliquots for determination of CGA were acidified with HCl and kept frozen in liquid nitrogen until analyses. Urine aliquots for determination of creatinine were acidified with HCl and kept at −20° C. until analyses.
as §1

[4] = target: T2, Glc-6-Pase (Rattus norvegicus, UniProt P43428); details: fully disrupted microsomes; cited from earlier work
T2 construct: host or cells: rat microsomes (liver)
T2 sequence (P43428 1-357): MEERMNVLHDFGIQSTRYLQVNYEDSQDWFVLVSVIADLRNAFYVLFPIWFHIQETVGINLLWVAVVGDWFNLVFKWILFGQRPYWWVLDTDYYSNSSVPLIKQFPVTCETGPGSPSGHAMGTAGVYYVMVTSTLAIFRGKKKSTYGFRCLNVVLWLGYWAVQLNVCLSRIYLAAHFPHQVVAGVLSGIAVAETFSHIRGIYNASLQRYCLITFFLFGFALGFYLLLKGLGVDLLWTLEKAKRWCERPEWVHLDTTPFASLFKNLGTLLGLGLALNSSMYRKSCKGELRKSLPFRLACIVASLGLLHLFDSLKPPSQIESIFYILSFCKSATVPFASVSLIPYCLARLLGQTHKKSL

[5] = tested on: Glc-6-Pase; details: intact rat microsomes; cited from earlier work
[6] = both sexes, human, po, 400 mg, read-out: AUC
[7] = both sexes, human, po, 400 mg, read-out: Tmax

contribution to total phenolics in plasma [1]: 1.4%
Cmax ([1]; both sexes, human, po, 400 mg): 400 ± 30 nM
AUC [1, 6]: 0.8 ± 0.2 µM·h
Tmax [1, 7]: 2.5 ± 1.8 h
Compound: O=C(O)/C=C/c1ccc(O)cc1 [p-coumaric acid]

contribution to total phenolics in plasma [1]: 6.1%
Cmax ([1]; both sexes, human, po, 400 mg): 900 ± 200 nM
AUC [1, 6]: 3.5 ± 1.9 µM·h
Tmax [1, 7]: 2.9 ± 1.8 h
Compound: COc1ccc(/C=C/C(=O)O)cc1O [Isoferulic acid]

identification in urine ([3]; human, in vivo): not identified
Compound: O=C(O)c1ccc(O)c(O)c1 [Protocatechuic acid]

identification in urine ([3]; human, in vivo): not identified
Compound: O=C(O)CNC(=O)c1ccccc1 [hippuric acid]

identification in urine ([3]; human, in vivo): not identified
Compound: COc1cc(CCC(=O)O)ccc1O [dihydroferulic acid]

More lines, now with the values behind:

Compound: O=C(O)/C=C/c1ccc(O)c(O)c1 [Caffeic acid]
contribution to total phenolics in plasma [1]: 6.6%
Cmax ([1]; both sexes, human, po, 400 mg): 1100 ± 900 nM
AUC [1, 6]: 3.8 ± 3.2 µM·h
Tmax [1, 7]: 3.6 ± 2.1 h

Compound: O=C(C=Cc1ccc(O)c(O)c1)OC1CC(O)(C(=O)O)CC(O)C1OC(=O)C=Cc1ccc(O)c(O)c1 (stereo not shown) [3,4-diCQA, 3,4-dicaffeoylquinic acid]
Percentage inhibition of G6Pase [2]: 6.9 ± 4.3%
Contribution to Glc-6-Pase system inhibition by the green coffee extract [2]: 19%
Cmax ([1]; both sexes, human, po, 400 mg): 1500 ± 1600 nM
AUC [1, 6]: 5 ± 4.9 µM·h
Tmax [1, 7]: 2.6 ± 1.8 h
molar ratio 3,5-diCQA:4,5-diCQA:3,4-diCQA in plasma [1]: 1.0

Compound: O=C(C=Cc1ccc(O)c(O)c1)OC1C(O)CC(O)(C(=O)O)CC1O (stereo not shown) [4-CQA, 4-caffeoylquinic acid]
Percentage inhibition of G6Pase [2]: 14% and 14.4 ± 1.2%
Contribution to Glc-6-Pase system inhibition by the green coffee extract [2]: 40%
Cmax ([1]; both sexes, human, po, 400 mg): 1400 ± 1100 nM
AUC [1, 6]: 4.3 ± 5.4 µM·h
Tmax [1, 7]: 3.6 ± 2.2 h
contribution to AUC of total phenolic compounds in plasma [1]: 7.5%
molar ratio 5-CQA:4-CQA:3-CQA in plasma [1]: 1.4
total urinary excretion ([3]; human, in vivo): 0.04 µmol

Compound: O=C(O)c1ccccc1 [benzoic acid]
identification in urine ([3]; before or after the extract consumption): not identified

Compound: O=C(C=Cc1ccc(O)c(O)c1)OC1CC(O)(C(=O)O)CC(O)C1O (stereo not shown) [3-CQA, 3-caffeoylquinic acid]
Contribution to Glc-6-Pase system inhibition by the green coffee extract [2]: 0%
contribution to AUC of total phenolic compounds in plasma [1]: 5.2%
AUC [1]: 3.0 ± 4.5 µM·h
Cmax [1]: 900 ± 1400 nM
molar ratio 5-CQA:4-CQA:3-CQA in plasma [1]: 1.0

Compound: O=C(C=Cc1ccc(O)c(O)c1)OC1CC(O)(C(=O)O)CC(O)C1O (stereo not shown) [5-CQA, 5-caffeoylquinic acid]
Percentage inhibition of G6Pase [2]: 9.2 ± 1.4%
Contribution to Glc-6-Pase system inhibition by the green coffee extract [2]: 25%
contribution to AUC of total phenolic compounds in plasma [1]: 31.3%
AUC [1]: 17.9 ± 15.3 µM·h
Cmax [1]: 5900 ± 4200 nM
Tmax [1]: 3.3 ± 2.4 h
molar ratio 5-CQA:4-CQA:3-CQA in plasma [1]: 6.0
content in baseline urine, variation among the subjects ([3]; both, human, in vivo): up to 0.35 μmol
inhibition of Glc-6-Pase [4]: no effect
inhibition of Glc-6-Pase [5]: inhibits Glc-6-Pase

Compound: COc1cc(/C=C/C(=O)O)ccc1O [Ferulic acid]
contribution to total phenolics in plasma [1]: 6.2%
Cmax ([1]; both sexes, human, po, 400 mg): 800 ± 300 nM
AUC [1, 6]: 3.6 ± 1.5 µM·h
Tmax [1, 7]: 2.9 ± 1.8 h

Compound: O=C(C=Cc1ccc(O)c(O)c1)OC1CC(O)(C(=O)O)CC(O)C1OC(=O)C=Cc1ccc(O)c(O)c1 (stereo not shown) [4,5-diCQA, 4,5-dicaffeoylquinic acid]
Percentage inhibition of G6Pase [2]: 13% and 12.8 ± 2.6%
Contribution to Glc-6-Pase system inhibition by the green coffee extract [2]: 35%
AUC [1]: 6.8 ± 5.7 µM·h
Cmax [1]: 2500 ± 3000 nM
Tmax [1]: 3.3 ± 2.5 h
molar ratio 3,5-diCQA:4,5-diCQA:3,4-diCQA in plasma [1]: 1.4

Compound: O=C(O)c1cc(O)c(O)c(O)c1 [Gallic Acid]
total urinary excretion ([3]; subject 1, 0-8 h after consumption): 43.47 µmol
total urinary excretion ([3]; subject 1, Baseline): 9.24 µmol
total urinary excretion ([3]; subject 2, 0-8 h after consumption): 18.67 µmol
total urinary excretion ([3]; subject 2, Baseline): 3.55 µmol
total urinary excretion ([3]; subject 3, 0-8 h after consumption): 9.41 µmol
total urinary excretion ([3]; subject 3, Baseline): 1.86 µmol
total urinary excretion ([3]; subject 4, 0-8 h after consumption): 7.98 µmol
total urinary excretion ([3]; subject 4, Baseline): 0.70 µmol
total urinary excretion ([3]; subject 5, 0-8 h after consumption): 25.45 µmol
total urinary excretion ([3]; subject 5, Baseline): 10.19 µmol
total urinary excretion ([3]; subject 6, Baseline): 10.57 µmol
total urinary excretion ([3]; subject 7, 0-8 h after consumption): 14.03 µmol
total urinary excretion ([3]; subject 7, Baseline): 0.25 µmol
total urinary excretion ([3]; subject 8, 0-8 h after consumption): 68.21 µmol
total urinary excretion ([3]; subject 8, Baseline): 6.79 µmol
total urinary excretion ([3]; subject 9, 0-8 h after consumption): 57.69 µmol
total urinary excretion ([3]; subject 9, Baseline): 1.68 µmol
total urinary excretion ([3]; subject 10, 0-8 h after consumption): 112.22 µmol
total urinary excretion ([3]; subject 10, Baseline): 25.25 µmol

Compound: O=C(C=Cc1ccc(O)c(O)c1)OC1CC(O)(C(=O)O)CC(OC(=O)C=Cc2ccc(O)c(O)c2)C1O (stereo not shown) [3,5-diCQA, 3,5-dicaffeoylquinic acid]
Contribution to Glc-6-Pase system inhibition by the green coffee extract [2]: 0%
Cmax ([1]; both sexes, human, po, 400 mg): 2700 ± 2700 nM
AUC [1, 6]: 8.7 ± 8.3 µM·h
Tmax [1, 7]: 3.2 ± 2.5 h
molar ratio 3,5-diCQA:4,5-diCQA:3,4-diCQA in plasma [1]: 1.7
